Measurements from article PMC8469395 (Pharmaceutics, 2021).
Like-named read-outs stand apart in the source and are kept apart here.

Experiments:
[1] = tested on: TR-iBRB2 cells; assay: Effect of compounds on [3H]amantadine uptake by TR-iBRB2 cells; type: in vitro ADME, rat; details: for activity at 200 µM / activity at 2500 µM: Rattus norvegicus, 0.05 h, read-out: [3H]amantadine uptake, % of Control, TR-iBRB2
Description: (§1) In 10% fetal bovine serum (FBS; Merck, Darmstadt, Germany)-containing Dulbecco’s modified Eagle’s medium (DMEM; Nissui Pharmaceutical, Tokyo, Japan) with 20 mM NaHCO3, 0.19 mM benzylpenicillin potassium, and 0.14 mM streptomycin sulfate, TR-iBRB2 cells (passage number 32–60) were cultured according to previous reports. As described previously, RPE-J cells (passage number 79-92) were cultured in DMEM with 4% FBS, 20 mM NaHCO3, and 0.1 mM non-essential amino acid (FUJIFILM Wako Pure Chemical, Osaka, Japan) containing 0.16 mM benzylpenicillin potassium and 0.17 mM streptomycin sulfate. In accordance with established protocols for the uptake study, the cells were seeded at a density of 1.0 × 10^5 cells/well onto a collagen I-coated 24-well plate (BioCoat™ Collagen I Cellware, Corning, Corning, NY, USA) and cultured for 2 days, at 33 °C, under 5% CO2/air. Referring to the previous reports, we started the uptake reaction, and the details of the procedure are included in the Supplemental Materials.
(§2) Cell/medium ratio = [^3H]compound (dpm) per cell protein (mg)/[^3H]compound (dpm) per medium (µL)(2) […]
(§3) 7.4) three times at 37°C.
(§4) and KHCO3, respectively. Cl--free ECF buffer was prepared by replacing equimolar
(§5) protein assay kit (Bio-Rad, Hercules, CA, USA).

[2] = tested on: RPE-J cells; assay: Amantadine uptake by RPE-J cells (outer BRB model); type: in vitro ADME, rat; details: for Km1 (high-affinity process): 1.67 µM−10 mM
Description: as §1
(§6) Cell/medium ratio = [^3H]compound (dpm) per cell protein (mg)/[^3H]compound (dpm) per medium (µL)(2)
(§7) Kinetic parameters for cell uptake, such as the maximal uptake rate (Vmax), Michaelis–Menten constant (Km), and non-saturable uptake clearance (Kd), were obtained by using the nonlinear least-squares regression analysis program (MULTI) with Equations (3)–(5), where the uptake rate of the test compound and its concentration were V and S, respectively. V = (Vmax × S)/(Km + S)(3) V = (Vmax × S)/(Km + S) + Kd × S(4) V = (Vmax1 × S)/(Km1 + S) + (Vmax2 × S)/(Km2 + S)(5) […]
as §3, §4, §5

[3] = tested on: TR-iBRB2 cells; assay: Amantadine uptake by TR-iBRB2 cells (inner BRB model); type: in vitro ADME, rat
Description: as §1, §6, §7, §3, §4, §5

[4] = tested on: RPE-J cells; assay: Effect of compounds on [3H]amantadine uptake by RPE-J cells; type: in vitro ADME, rat; details: for activity at 200 µM / activity at 1000 µM / activity at 2500 µM: Rattus norvegicus, 0.05 h, read-out: [3H]amantadine uptake, % of Control, RPE-J; for [3H]amantadine uptake, % of Control, RPE-J: [3H]amantadine 1.67 µM, 3 min, 37 °C
Description: as §1, §2, §3, §4, §5

[5] = pharmacotherapy for Parkinson's disease; cited from earlier work
[6] = tested on: retina (blood–retinal barrier); assay: In vivo blood-to-retina transport, retinal uptake index (RUI) method; details: co-administration of 50 mM compound, rat
[7] = target: NMDA receptors; parameters: method as in ref 47 (Parsons et al.); details: ref 47 (Parsons et al.); cited from earlier work
[8] = parameters: method as in ref 31 = [31]; 31. Grabowski T. Gumulka S.W. Borucka B. Raszewski W. Analysis relationships between pharmacokinetic parameters in silico/in vivo of selected antiviral drugs based on structural analysis Adv. Clin. Ex; details: cited from earlier work
[9] = cited from earlier work
[10] = tested on: TR-iBRB2 cells; details: read-out: Km for uptake by TR-iBRB2 cells; cited from earlier work
[11] = compound 0.2 mM, [3H]amantadine 1.67 µM, 3 min, 37 °C
[12] = pretreatment 30 mM NH4Cl, 15 s, 37 °C

## CC(=O)Nc1nnc(S(N)(=O)=O)s1 [Acetazolamide]
[1]; [11]
  [3H]amantadine uptake, % of Control, TR-iBRB2: 90.9 ± 3.8 % of Control

## NC12CC3CC(CC(C3)C1)C2 [Amantadine]
[1]
  activity at 200 µM: 34.1 ± 4.1%
[2]
  Km2 (low-affinity process): 9830 ± 1620 µM
  Vmax1 (high-affinity process): 0.914 ± 0.510 nmol/(min·mg protein)
  Vmax2 (low-affinity process): 85.3 ± 11.4 nmol/(min·mg protein)
  contribution of the high-affinity process: 54%
  contribution of the low-affinity process: 46%
  decrease of uptake at extracellular pH 6.4: 32%
  increase of uptake at extracellular pH 8.4: 25%
  Km1 (high-affinity process): 90.5 ± 49.6 µM
[2]; listed as amantadine
  Km1 (high-affinity process): 90.5 µM
  Km2 (low-affinity process): 9830 µM
[2]; 4 °C vs 37 °C
  reduction of uptake at 4 °C: 87%
[2]; [3H]amantadine 1.67 µM, 37 °C
  initial uptake rate: 15.9 ± 0.3 µL/(min·mg protein)
[2]; acute 30 mM NH4Cl, 15 s, 37 °C
  decrease of uptake at alkalized intracellular pH: 78%
[2]; [12]
  increase of uptake at acidified intracellular pH: 18%
[3]
  reduction of uptake at extracellular pH 6.4: 64%
[3]; 4 °C vs 37 °C
  reduction of uptake at 4 °C: 86%
[3]; 37 °C, 3 min, 1.67 to 1000 µM
  Km: 79.4 µM
  Vmax: 1.36 ± 0.38 nmol/(min·mg protein)
[3]; 3 min, 37 °C
  reduction of uptake in Cl−-free buffer: 38%
[3]; [3H]amantadine 1.67 µM, 37 °C
  initial uptake rate: 14.0 ± 4.1 µL/(min·mg protein)
[3]; acute 30 mM NH4Cl, 15 s, 37 °C
  decrease of uptake at alkalized intracellular pH: 80%
[3]; [12]
  increase of uptake at acidified intracellular pH: 90%
[4]
  activity at 200 µM: 89.9 ± 5.6%
  activity at 1000 µM: 21.3 ± 3.1%
[5]
  plasma concentration range: 600 to 29000 nM
[6]
  decrease of [3H]amantadine RUI: 44%
[7]
  IC50: 20 µM
[8]
  log D: 0.176
[9]
  pKa: 10.1

## C[N+](C)(C)CCO [Choline]
[1]
  activity at 200 µM: 101 ± 8%
[4]
  activity at 200 µM: 124 ± 39%

## CN/C(=N/CCSCc1nc[nH]c1C)NC#N [Cimetidine]
[1]
  [3H]amantadine uptake, % of Control, TR-iBRB2: 97.6 ± 24.7 % of Control
[4]; compound 0.2 mM
  [3H]amantadine uptake, % of Control, RPE-J: 106 ± 5 % of Control

## Clc1cccc(Cl)c1N=C1NCCN1 [Clonidine]
[1]
  activity at 200 µM: 42.1 ± 12.1%
[1]; compound 0.2 mM
  reduction of [3H]amantadine uptake by TR-iBRB2 cells: more than 58%
[4]
  activity at 200 µM: 71.6 ± 4.7%
  activity at 1000 µM: 30.8 ± 4%
[10]
  Km: 286 µM

## CCN1/C(=C/c2ccc3ccccc3[n+]2CC)C=Cc2ccccc21.[I-] [Decynium-22]
[1]; [11]
  [3H]amantadine uptake, % of Control, TR-iBRB2: 106 ± 31 % of Control
[4]; compound 0.2 mM
  [3H]amantadine uptake, % of Control, RPE-J: 86.7 ± 41.9 % of Control
[4]; compound 0.5 mM
  [3H]amantadine uptake, % of Control, RPE-J: 136 ± 8 % of Control

## CNCCCN1c2ccccc2CCc2ccccc21 [Desipramine]
[1]; [11]
  [3H]amantadine uptake, % of Control, TR-iBRB2: 7.05 ± 0.57 % of Control
[4]; compound 0.2 mM
  [3H]amantadine uptake, % of Control, RPE-J: 10.7 ± 5.6 % of Control

## N#CC(C#N)=NNc1ccc(OC(F)(F)F)cc1 [FCCP, carbonyl cyanide-p-trifluoromethoxyphenylhydrazone]
[1]
  decrease of [3H]amantadine uptake: 50%

## O=C(O)[C@H](O)[C@@H](O)[C@H](O)[C@H](O)CO [Gluconate]
[1]; [11]
  [3H]amantadine uptake, % of Control, TR-iBRB2: 91.7 ± 21.7 % of Control
[4]; compound 0.2 mM
  [3H]amantadine uptake, % of Control, RPE-J: 86.2 ± 23.4 % of Control

## NCC(=O)O [Glycine]
[1]; compound 2.5 mM, [3H]amantadine 1.67 µM, 3 min, 37 °C
  [3H]amantadine uptake, % of Control, TR-iBRB2: 102 ± 4 % of Control
[4]; compound 2.5 mM
  [3H]amantadine uptake, % of Control, RPE-J: 116 ± 13 % of Control

## CN(C)CCCN1c2ccccc2CCc2ccccc21 [Imipramine]
[1]
  activity at 200 µM: 8.37 ± 1.43%
[4]
  activity at 200 µM: 16.9 ± 5.2%

## N=C(N)NCCC[C@H](N)C(=O)O [L-Arginine]
[1]
  activity at 2500 µM: 127 ± 15%
[4]
  activity at 2500 µM: 150 ± 38%

## N[C@@H](CC(=O)O)C(=O)O [L-Aspartic acid]
[1]
  activity at 2500 µM: 101 ± 23%
[4]
  activity at 2500 µM: 79.5 ± 12.7%
